Assay [1] can be described thus: Cytotoxic activity against human CEM13 cells assessed as reduction in cell viability after 72 hrs by MTT assay. The class given is functional.
Assay [2] concerns MT4. Briefly: Cytotoxic activity against human MT4 cells assessed as reduction in cell viability after 72 hrs by MTT assay. In kind it is functional.
In assay [3] the test system is MT4. Briefly: Induction of apoptosis in human MT4 cells at 0.9 uM after 24 hrs by propidium iodide staining based FACS flow cytometry (reference value: 2.3%). In kind it is functional.
In assay [4] the test system is MT4. Briefly: Induction of apoptosis in human MT4 cells at 0.9 uM after 72 hrs by propidium iodide staining based FACS flow cytometry (reference value: 5.5%). The class given is functional.
The nature of assay [5]: Cytotoxic activity against human U937 cells assessed as reduction in cell viability after 72 hrs by MTT assay. The class given is functional, U-937.
Assay [6] has as its system MT4. Briefly: Induction of apoptosis in human MT4 cells at 0.9 uM after 48 hrs by propidium iodide staining based FACS flow cytometry (reference value: 3.5%). In kind it is functional.

Regarding `COc1cc2c(cc1O)[C@@H]1OC[C@@H]3CC(C(C)C)=CC2[C@@]31C` (some centres undefined), the CTD50 in assay [1] was 93.3 µM; in the assay on MT4 [2], 0.93 µM; in assay [5], 50 µM. Besides, the results for the Activity with MT4 [3], with MT4 [4] and with MT4 [6] were 12.8%, 27.7% and 16.3%, respectively.
With `COc1cc2c(cc1O)C1C=C(C(C)C)C[C@H]3CO[C@@H]2[C@@]13C` (some centres undefined), the CTD50 stood at 136.7 µM in assay [1], 150 µM in the assay on MT4 [2] and 210 µM in assay [5].
The like results for `COc1cc2c(c(OC)c1O)C1C=C(C(C)C)C[C@H]3CO[C@@H]2[C@@]13C` (some centres undefined) were, in that order, 157.6 µM, 224.2 µM and 136.4 µM.
In the same order, the values of `COc1cc2c(c(OC)c1OC)C1C=C(C(C)C)C[C@H]3CO[C@@H]2[C@@]13C` (some centres undefined) are 49.4 µM, 200.6 µM and 66.9 µM.
The like results for `COc1cc(OC)c2c(c1OC)C1C=C(C(C)C)C[C@H]3CO[C@@H]2[C@@]13C` (some centres undefined) were, in that order, 81.4 µM, greater than 250 µM and 116.3 µM.
Take `CC(C)C1=CC2Oc3cc(O)ccc3[C@@H]3OC[C@H](C1)[C@]23C` (some centres undefined): the CTD50 in assay [1] is 111.9 µM; in the assay with MT4 [2], 150.3 µM; in assay [5] it was 164.3 µM.
In the case of `COc1cccc2c1C(=O)c1c(O)c3c(c(O)c1C2=O)C[C@@](O)(C(=O)CO)C[C@@H]3O[C@H]1C[C@H](N)[C@H](O)[C@H](C)O1` [DOXORUBICIN], the CTD50 in assay [1] is 3.44 µM; in the assay on MT4 [2], 2.76 µM; in assay [5], 0.17 µM.

For the origin of these results see ChEMBL document CHEMBL3397014, “The short way to chiral compounds with hexahydrofluoreno[9,1-bc]furan framework: synthesis and cytotoxic activity” (2015).
